# Assay results as given in patent US20220152004A1, “HETEROCYCLYL(PHENYL)METHANOL COMPOUNDS USEFUL IN THE TREATMENT OF HYPERGLYCAEMIA” (ATROGI AB, priority 2019, published 2022).
# Counter-ions that a name gives are not always drawn.
# Experiments:
# L6-myotubes [1] = experiment: Glucose uptake (3H-2-deoxy-glucose) in differentiated L6-myotubes; format: cell-based; conditions: agonist final concentration 1×10^−5; for Emax at 10 µM: differentiated L6-myotubes, Table 1, read-out: Biological example 1 (glucose uptake, activity compared to that of isoproterenol)
# Procedure: (§1) L6-myoblasts were grown in Dulbecco's Modified Eagle's Medium (DMEM) containing 4.5 g/l glucose supplemented with 10% fetal bovine serum, 2 mM L-Glutamine, 50 U/ml penicillin, 50 μg/ml streptomycin and 10 mM HEPES. Cells were plated at 1×10^5 cells per ml in 24-well plates. After reaching 90% confluence the cells were grown in medium containing 2% FBS for 7 days where upon cells differentiated into myotubes.
# Differentiated L6-myotubes were serum-starved overnight in medium containing 0,5% fatty-acid free BSA and stimulated with agonist, final concentration 1×10^−5. After 1 h 40 min cells were washed with warm, glucose free medium or PBS and another portion of agonist was added to glucose free medium. After 20 min the cells were exposed to 50 nM ^3H-2-deoxy-glucose for another 10 min before washed in ice cold glucose free medium or PBS and lysed in 0.2 M NaOH for 1 h in 60° C.
# L6-myotubes [2] = experiment: Measurement of intracellular cAMP levels in differentiated L6-myotubes; format: cell-based; conditions: 0.25 h; agonist final concentration 1×10^−5, 15 min; differentiated cells; Table 1; read-out: Biological example 2 (intracellular cAMP levels, activity compared to that of isoproterenol)
# Procedure: as §1
# Differentiated cells were serum-starved overnight and stimulated with agonist, final concentration 1×10^−5, for 15 min in stimulation buffer (HBSS supplemented with 1% BSA, 5 mM HEPES and 1 mM IBMX, pH 7,4) The medium was then aspirated and to end the reaction 100 μL of 95% EtOH was added to each well of a 24-well plate and cells were kept in −20° C. over night. The EtOH was let to evaporate and 500 μL of lysis buffer (1% BSA, 5 mM HEPES and 0,3% Tween-20, pH 7,4) was added to each well before put in −80° C. for 30 min and then kept in −20° C. Intracellular cAMP levels were detected using an alpha screen cAMP kit (6760635D from Perkin Elmer). The activity for each compound is compared to that of isoproterenol.
SMILES,Emax at 10 µM (L6-myotubes [1]),Emax at 10 µM (L6-myotubes [2]),"Biological example 3 (L6-myotubes [1]; Table 2, glucose uptake assay of Biological Example 1)"
"CC1(C)CCC[C@H]([C@H](O)c2cccc(F)c2)N1 [Example 1, (R)-((R)-6,6-Dimethylpiperidin-2-yl)(3-fluorophenyl)methanol]",50 to 75%,< 25%,–
"CC1(C)CCC[C@H]([C@@H](O)c2cccc(F)c2)N1 [Example 2, (S)-((R)-6,6-Dimethylpiperidin-2-yl)(3-fluorophenyl)methanol]",< 25%,< 25%,–
"CC1(C)CCC[C@H]([C@H](O)c2cccc(O)c2)N1 [Example 3, 3-((R)-((R)-6,6-Dimethylpiperidin-2-yl)(hydroxy)methyl)phenol acetate]",25 to 50%,< 25%,–
"CC1(C)CCC[C@H]([C@@H](O)c2cccc(O)c2)N1 [Example 4, 3-((S)-((R)-6,6-Dimethylpiperidin-2-yl)(hydroxy)methyl)phenol acetate]",25 to 50%,< 25%,–
"CC1(C)CCC[C@H]([C@H](O)c2ccccc2Cl)N1 [Example 5, (R)-(2-Chlorophenyl)((R)-6,6-dimethylpiperidin-2-yl)methanol hydrochloride]",25 to 50%,< 25%,–
"CC1(C)CCC[C@H]([C@@H](O)c2ccccc2Cl)N1 [Example 6, (S)-(2-Chlorophenyl)((R)-6,6-dimethylpiperidin-2-yl)methanol hydrochloride]",> 75%,< 25%,–
"CC1(C)CCC[C@H]([C@H](O)c2cccc(Cl)c2)N1 [Example 7, hydrochloride]",25 to 50%,< 25%,–
"CC1(C)CCC[C@H]([C@H](O)c2ccccc2F)N1 [Example 9, (R)-((R)-6,6-Dimethylpiperidin-2-yl)(2-fluorophenyl)methanol hydrochloride]",50 to 75%,< 25%,–
"CC1(C)CCC[C@H]([C@@H](O)c2ccccc2F)N1 [Example 10, (S)-((R)-6,6-Dimethylpiperidin-2-yl)(2-fluorophenyl)methanol hydrochloride]",> 75%,25 to 50%,–
"CC1(C)CC[C@H]([C@H](O)c2cccc(F)c2)N1 [Example 11, (R)-((R)-5,5-Dimethylpyrrolidin-2-yl)(3-fluorophenyl)methanol hydrochloride]",> 75%,< 25%,–
"CC1(C)CC[C@H]([C@@H](O)c2cccc(F)c2)N1 [Example 12, (S)-((R)-5,5-Dimethylpyrrolidin-2-yl)(3-fluorophenyl)methanol hydrochloride]",25 to 50%,< 25%,–
"CC1(C)CC[C@@H]([C@H](O)c2cccc(F)c2)N1 [Example 13, (R)-((S)-5,5-Dimethylpyrrolidin-2-yl)(3-fluorophenyl)methanol hydrochloride]",< 25%,< 25%,–
"CC1(C)CC[C@@H]([C@@H](O)c2cccc(F)c2)N1 [Example 14, (S)-((S)-5,5-Dimethylpyrrolidin-2-yl)(3-fluorophenyl)methanol hydrochloride]",25 to 50%,< 25%,–
"CC1(C)CC[C@H]([C@H](O)c2cccc(O)c2)N1 [Example 15, (R)-((R)-5,5-Dimethylpyrrolidin-2-yl)(hydroxy)methyl)phenol acetate]",> 75%,< 25%,–
"CC1(C)CC[C@H]([C@@H](O)c2cccc(O)c2)N1 [Example 16, (S)-((R)-5,5-Dimethylpyrrolidin-2-yl)(hydroxy)methyl)phenol acetate]",50 to 75%,< 25%,–
CC1(C)CC[C@@H]([C@H](O)c2cccc(O)c2)N1 [Example 17],25 to 50%,< 25%,–
CC1(C)CC[C@@H]([C@@H](O)c2cccc(O)c2)N1 [Example 18],< 25%,< 25%,–
"CC1(C)CC[C@H]([C@H](O)c2ccccc2F)N1 [Example 19, (R)-((R)-5,5-Dimethylpyrrolidin-2-yl)(2-fluorophenyl)methanol hydrochloride]",> 75%,< 25%,–
"CC1(C)CC[C@H]([C@@H](O)c2ccccc2F)N1 [Example 20, (S)-((R)-5,5-Dimethylpyrrolidin-2-yl)(2-fluorophenyl)methanol hydrochloride]",25 to 50%,< 25%,–
"CC1(C)CC[C@H]([C@H](O)c2ccc(F)cc2)N1 [Example 21, (R)-((R)-5,5-Dimethylpyrrolidin-2-yl)(4-fluorophenyl)methanol hydrochloride]",50 to 75%,< 25%,–
"CC1(C)CC[C@H]([C@@H](O)c2ccc(F)cc2)N1 [Example 22, (S)-((R)-5,5-Dimethylpyrrolidin-2-yl)(4-fluorophenyl)methanol hydrochloride]",< 25%,< 25%,–
"CC1(C)CC[C@H]([C@H](O)c2ccccc2Cl)N1 [Example 23, (R)-(2-Chlorophenyl)((R)-5,5-dimethylpyrrolidin-2-yl)methanol hydrochloride]",> 75%,< 25%,–
"CC1(C)CC[C@H]([C@@H](O)c2ccccc2Cl)N1 [Example 24, (S)-(2-Chlorophenyl)((R)-5,5-dimethylpyrrolidin-2-yl)methanol hydrochloride]",< 25%,< 25%,–
"CC1(C)CC[C@H]([C@H](O)c2cccc(Cl)c2)N1 [Example 25, (R)-(3-Chlorophenyl)((R)-5,5-dimethylpyrrolidin-2-yl)methanol hydrochloride]",> 75%,< 25%,–
"CCCC1(CCC)CC[C@H]([C@H](O)c2cccc(F)c2)N1 [Example 27, (R)-((R)-5,5-Dipropylpyrrolidin-2-yl)(3-fluorophenyl)methanol hydrochloride]",50 to 75%,< 25%,–
"CCCC1(CCC)CC[C@H]([C@@H](O)c2cccc(F)c2)N1 [Example 28, (S)-((R)-5,5-Dipropylpyrrolidin-2-yl)(3-fluorophenyl)methanol hydrochloride]",< 25%,< 25%,–
"O[C@H](c1cccc(F)c1)[C@H]1CCC2(CC2)N1 [Example 29, (R)-(3-Fluorophenyl)((R)-4-azaspiro[2.4]heptan-5-yl)methanol hydrochloride]",50 to 75%,< 25%,–
"O[C@@H](c1cccc(F)c1)[C@H]1CCC2(CC2)N1 [Example 30, (S)-(3-Fluorophenyl)((R)-4-azaspiro[2.4]heptan-5-yl)methanol hydrochloride]",25 to 50%,< 25%,–
"O[C@H](c1cccc(F)c1)[C@H]1CCC2(CCCC2)N1 [Example 31, (R)-(3-Fluorophenyl)((R)-1-azaspiro[4.4]nonan-2-yl)methanol maleate]",50 to 75%,25 to 50%,–
"CC1(C)CC[C@H]([C@@H](O)c2cc(F)c(N)c(F)c2)N1.Cl [Example 51, (S)-(4-Amino-3,5-difluorophenyl)((R)-5,5-dimethylpyrrolidin-2-yl)methanol hydrochloride]",–,–,+++ (more than 75% of that of isoproterenol)
